# Experimental data taken from ChEMBL document CHEMBL1150047, “New sesquiterpene quinols from a Micronesian sponge, Aka sp” (J Nat Prod, 2003).
# Where a name gives a salt, the structure may show the parent alone. The source made the active and inactive calls. The calls are words filed in the database; no cut-off is given here.
# How the values were obtained:
# [1] = biological target: Cyclin-dependent kinase 4/cyclin D1 (Homo sapiens, UniProt P11802); assay: Inhibition of CDK4/Cyclin D1 complex formation
# Cyclin-dependent kinase 4/cyclin D1, sequence (P11802 whole entry): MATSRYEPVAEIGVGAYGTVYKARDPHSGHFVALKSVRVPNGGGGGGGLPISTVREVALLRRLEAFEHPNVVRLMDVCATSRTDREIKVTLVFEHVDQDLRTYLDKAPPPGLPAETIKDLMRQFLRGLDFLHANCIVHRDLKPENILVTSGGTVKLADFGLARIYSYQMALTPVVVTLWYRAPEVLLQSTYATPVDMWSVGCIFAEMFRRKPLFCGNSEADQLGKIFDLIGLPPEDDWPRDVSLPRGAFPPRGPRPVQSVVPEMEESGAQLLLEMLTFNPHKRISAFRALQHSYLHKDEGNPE
# Cyclin-dependent kinase 4/cyclin D1, sequence (P24385 whole entry, further chain): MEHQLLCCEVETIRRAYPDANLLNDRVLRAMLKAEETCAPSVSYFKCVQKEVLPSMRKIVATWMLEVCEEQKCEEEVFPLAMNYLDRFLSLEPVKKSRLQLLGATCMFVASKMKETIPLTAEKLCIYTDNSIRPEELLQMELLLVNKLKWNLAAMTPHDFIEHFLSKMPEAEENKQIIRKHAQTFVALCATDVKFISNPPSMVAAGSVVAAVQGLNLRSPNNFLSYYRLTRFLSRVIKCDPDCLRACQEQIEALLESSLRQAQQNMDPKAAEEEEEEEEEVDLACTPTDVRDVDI
# [2] = biological target: Cyclin-dependent kinase 4/cyclin D1 (Homo sapiens) (UniProt P11802+P24385); assay: Inhibition of CDK4/Cyclin D1 complex formation at 10 ug/mL; assay type: protein-complex assay
IC50 [1],SMILES,Activity [2]
19.5 µM,CC1=CC[C@H]2C(C)(C)CCC[C@]2(C)[C@H]1Cc1cc(O)c(O)c(C=O)c1OS(=O)(=O)O [SIPHONODICTYAL C],
12.6 µM,CC(CC[C@@H](C)[C@H]1CC[C@H]2[C@@H]3C[C@H](OS(=O)(=O)O)[C@H]4C[C@H](OS(=O)(=O)O)[C@@H](OS(=O)(=O)O)C[C@]4(C)[C@H]3CC[C@]12C)C(C)(C)C (some centres undefined) [HALISTANOL SULFATE],
,CC1(C)CCC[C@]2(C)[C@@H](Cc3c(O)ccc(O)c3C=O)[C@](C)(O)CC[C@@H]12,inactive
,COCc1cc(O)c(O)c2c1[C@@]1(C)CC[C@H]3C(C)(C)CCC[C@]3(C)[C@H]1C2,inactive
